Data taken from patent US11192867B2, “Microbiocidal oxadiazole derivatives” (SYNGENTA PARTICIPATIONS AG, priority 2016, dated 2021).

Columns and labels:
[1] = tested on: Puccinia recondita f. sp. Tritici; test: Fungicidal activity against Puccinia recondita f. sp. Tritici / wheat / leaf disc preventative (brown rust); type: in vivo; conditions: foliar, 200 ppm in the applied formulation, wheat leaf segments cv. Kanzler, inoculated 1 day after application, vs untreated control, read-out: disease control
Protocol: Leaf disks or leaf segments of various plant species are cut from plants grown in a greenhouse. The cut leaf disks or segments are placed in multiwell plates (24-well format) onto water agar. The leaf disks are sprayed with a test solution before (preventative) or after (curative) inoculation. Compounds to be tested are prepared as DMSO solutions (max. 10 mg/ml) which are diluted to the appropriate concentration with 0.025% Tween20 just before spraying. The inoculated leaf disks or segments are incubated under defined conditions (temperature, relative humidity, light, etc.) according to the respective test system. A single evaluation of disease level is carried out 3 to 14 days after inoculation, depending on the pathosystem. Percent disease control relative to the untreated check leaf disks or segments is then calculated. Wheat leaf segments cv. Kanzler were placed on agar in multiwell plates (24-well format) and sprayed with the formulated test compound diluted in water. The leaf disks were inoculated with a spore suspension of the fungus 1 day after application. The inoculated leaf segments were incubated at 19° C. and 75% relative humidity (rh) under a light regime of 12 hours light/12 hours darkness in a climate cabinet and the activity of a compound was assessed as percent disease control compared to untreated when an appropriate level of disease damage appears in untreated check leaf segments (7 to 9 days after application). The following compounds at 200 ppm in the applied formulation give at least 80% disease control in this test when compared to untreated control leaf disks under the same conditions, which show extensive disease development.

[2] = tested on: Phakopsora pachyrhizi; test: Fungicidal activity against Phakopsora pachyrhizi / soybean / leaf disc preventative (Asian soybean rust); type: in vivo; conditions: foliar, 200 ppm in the applied formulation, soybean leaf disks, vs untreated control, read-out: disease control
Protocol: Leaf disks or leaf segments of various plant species are cut from plants grown in a greenhouse. The cut leaf disks or segments are placed in multiwell plates (24-well format) onto water agar. The leaf disks are sprayed with a test solution before (preventative) or after (curative) inoculation. Compounds to be tested are prepared as DMSO solutions (max. 10 mg/ml) which are diluted to the appropriate concentration with 0.025% Tween20 just before spraying. The inoculated leaf disks or segments are incubated under defined conditions (temperature, relative humidity, light, etc.) according to the respective test system. A single evaluation of disease level is carried out 3 to 14 days after inoculation, depending on the pathosystem. Percent disease control relative to the untreated check leaf disks or segments is then calculated. Soybean leaf disks are placed on water agar in multiwell plates (24-well format) and sprayed with the formulated test compound diluted in water. One day after application leaf discs are inoculated by spraying a spore suspension on the lower leaf surface. After an incubation period in a climate cabinet of 24-36 hours in darkness at 20° C. and 75% rh leaf disc are kept at 20° C. with 12 hours light/12 hours and 75% rh. The activity of a compound is assessed as percent disease control compared to untreated when an appropriate level of disease damage appears in untreated check leaf disks (12 to 14 days after application). The following compounds at 200 ppm in the applied formulation give at least 80% disease control in this test when compared to untreated control leaf disks under the same conditions, which show extensive disease development.

[3] = tested on: Glomerella lagenarium (Colletotrichum lagenarium); test: Fungicidal activity against Glomerella lagenarium (Colletotrichum lagenarium) liquid culture / cucumber / preventative (anthracnose); type: cell-based; conditions: Colletotrichum orbiculare, 72 h; 20 ppm in the applied formulation; liquid culture (PDB), growth inhibition measured photometrically 3 to 4 days after application; vs untreated control; read-out: disease control
Protocol: Mycelia fragments or conidia suspensions of a fungus prepared either freshly from liquid cultures of the fungus or from cryogenic storage, are directly mixed into nutrient broth. DMSO solutions of the test compound (max. 10 mg/ml) are diluted with 0.025% Tween20 by a factor of 50 and 10 μl of this solution is pipetted into a microtiter plate (96-well format). The nutrient broth containing the fungal spores/mycelia fragments is then added to give an end concentration of the tested compound. The test plates are incubated in the dark at 24° C. and 96% relative humidity. The inhibition of fungal growth is determined photometrically after 2 to 7 days, depending on the pathosystem, and percent antifungal activity relative to the untreated check is calculated.
Conidia of the fungus from cryogenic storage are directly mixed into nutrient broth (PDB—potato dextrose broth). After placing a (DMSO) solution of test compound into a microtiter plate (96-well format), the nutrient broth containing the fungal spores is added. The test plates are incubated at 24° C. and the inhibition of growth is measured photometrically 3 to 4 days after application.
The following compounds at 20 ppm in the applied formulation give at least 80% disease control in this test when compared to untreated control under the same conditions, which show extensive disease development.

SMILES | pest or weed control at 200 ppm [1] [%] | pest or weed control at 200 ppm [2] [%] | inhibition of growth at 20 ppm [3] [%]
CC(C=NOC1CCCCO1)NC(=O)c1ccc(-c2noc(C(F)(F)F)n2)cc1 (stereo not shown) [Compound 1.25, N-(1-methyl-2-tetrahydropyran-2-yloxyimino-ethyl)-4-[5-(trifluoromethyl)-1,2,4-oxadiazol-3-yl]benzamide] | ≥ 80 | ≥ 80 | ≥ 80
CCCCON=CC(C)NC(=O)c1ccc(-c2noc(C(F)(F)F)n2)cc1 (stereo not shown) [Compound 1.40, N-(2-butoxyimino-1-methyl-ethyl)-4-[5-(trifluoromethyl)-1,2,4-oxadiazol-3-yl]benzamide] | ≥ 80 | ≥ 80 | ≥ 80
CC(C=NOC(C)(C)C)NC(=O)c1ccc(-c2noc(C(F)(F)F)n2)cc1 (stereo not shown) [Compound 1.45, N-(2-tert-butoxyimino-1-methyl-ethyl)-4-[5-(trifluoromethyl)-1,2,4-oxadiazol-3-yl]benzamide] | ≥ 80 | ≥ 80 | ≥ 80
CC(C=NOCc1ccccc1CC(=O)O)NC(=O)c1ccc(-c2noc(C(F)(F)F)n2)cc1 (stereo not shown) [Compound 1.48, 2-[2-[[2-[[4-[5-(trifluoromethyl)-1,2,4-oxadiazol-3-yl]benzoyl]amino]propylideneamino]oxymethyl]phenyl] acetic acid] | ≥ 80 | ≥ 80 | ≥ 80
COC(=O)Cc1ccccc1CON=CC(C)NC(=O)c1ccc(-c2noc(C(F)(F)F)n2)cc1 (stereo not shown) [Compound 1.49, methyl 2-[2-[[2-[[4-[5-(trifluoromethyl)-1,2,4-oxadiazol-3-yl]benzoyl]amino]propylideneamino]oxymethyl]phenyl]acetate] | ≥ 80 | – | ≥ 80
CC(C=NOC(C)C)NC(=O)c1ccc(-c2noc(C(F)(F)F)n2)cc1 (stereo not shown) [Compound 1.50, N-(2-isopropoxyimino-1-methyl-ethyl)-4-[5-(trifluoromethyl)-1,2,4-oxadiazol-3-yl]benzamide] | ≥ 80 | ≥ 80 | ≥ 80
C=C(Cl)CON=CC(C)NC(=O)c1ccc(-c2noc(C(F)(F)F)n2)cc1 (stereo not shown) [Compound 1.56, N-[2-(2-chloroallyloxy-imino)-1-methyl-ethyl]-4-[5-(trifluoromethyl)-1,2,4-oxadiazol-3-yl]benzamide] | ≥ 80 | ≥ 80 | ≥ 80
O=C(NCC=NOCc1ccc([N+](=O)[O-])cc1)c1ccc(-c2noc(C(F)(F)F)n2)cc1 [Compound 1.61, N-[2-[(4-nitrophenyl)methoxyimino]ethyl]-4-[5-(trifluoromethyl)-1,2,4-oxadiazol-3-yl]benzamide] | ≥ 80 | ≥ 80 | –
COc1cccc(CON=C(C)CNC(=O)c2ccc(-c3noc(C(F)(F)F)n3)cc2)c1 [Compound 1.106, N-[2-[(3-methoxyphenyl)methoxyimino]propyl]-4-[5-(trifluoromethyl)-1,2,4-oxadiazol-3-yl]benzamide] | ≥ 80 | – | ≥ 80
CC(CNC(=O)c1ccc(-c2noc(C(F)(F)F)n2)cc1)=NOCC(=O)O [Compound 1.109, 2-[[1-methyl-2-[[4-[5-(trifluoromethyl)-1,2,4-oxadiazol-3-yl]benzoyl]amino]ethylidene]amino] oxyacetic acid] | ≥ 80 | – | ≥ 80
CC(CNC(=O)c1ccc(-c2noc(C(F)(F)F)n2)cc1)=NOCc1ccccc1CC(=O)O [Compound 1.136, 2-[2-[[[1-methyl-2-[[4-[5-(trifluoromethyl)-1,2,4-oxadiazol-3-yl]benzoyl]amino]ethylidene]amino]oxymethyl]phenyl]acetic acid] | ≥ 80 | – | ≥ 80
